Experimental data reported in patent publication US9173952B2, “Mitochondrial penetrating peptides as carriers for antimicrobials” (priority 2010, dated 2015).
≈ marks a conversion by molar mass, not a printed value. Entries after “also recorded” stand apart in the source; their conditions may differ. Read-outs that look alike come from different tables or passages of the source. Starred links: 1 amine or outer side, 2 acyl side, 3 side chain; linkers in the order of their positions; H or OH if unused. Non-standard residues stand in square brackets, D forms with d. Residues, ends and D or L forms follow the SMILES beside them. *: point of attachment. DAMPA = CN(Cc1cnc2nc(N)nc(N)c2n1)c1ccc(C(=O)*)cc1; γGlu = O=C(O)[C@H](CCC(=O)[*:2])N[*:1]; Cha = N[C@@H](CC1CCCCC1)C(=O)O

How the values were obtained:
E. faecalis (ATCC 29212) = assay: microbe, parasite or virus in culture; format: cell-based, Enterococcus faecalis
Description: (§1) Cell Culturing Conditions. HeLa cells were cultured in MEM alpha (Invitrogen, Carlsbad) supplemented with 10% (v/v) FBS at 37° C. with 5% CO2. Escherichia coli strain JW5503 from the Keio collection^12 (F−, Δ(araD-araB)567, ΔlacZ4787(:rrnB-3), λ^−, ΔtolC732:kan, rph-1, Δ(rhaD-rhaB)568, hsdR514) was grown on solid LB-agar or in LB liquid media supplemented with 50 μg/mL kanamycin at 37° C. Strains harboring the pCA24N plasmid were additionally grown with chloramphenicol at 20 μg/mL. B. subtilis was grown in LB media. S. aureus and E. faecalis were grown in Trypticase Soy Broth (TSB). S. pneumoniae were grown in TSB+5% defibrinated sheep's blood at 37° C. in an atmosphere of 5% CO2.
(§2) Minimum inhibitory concentration (MIC) determinations were performed to characterize the effect of each compound on bacterial growth. Briefly, overnight cultures were subcultured at 1:100 and grown to and OD600 of 0.5. Cells were Diluted 1:10000 into fresh media with test compounds. Cells were incubated for 16 hours at 37° C. Growth was monitored at OD600. Multi-copy suppression of compound toxicity was accomplished by inducing FolA (DHFR) expression from the pCA24N plasmid with 0.1 mM IPTG prior the incubation with test compounds. Compound toxicity was assessed in LB media for E. coli. […]

B. subtilis = assay: microbe, parasite or virus in culture; format: cell-based, Bacillus subtilis
Description: as §1, §2

E. coli strain JW5503 = assay: microbe, parasite or virus in culture; format: cell-based, Escherichia coli
Description: as §1, §2

S. aureus (ATCC 29213) = assay: microbe, parasite or virus in culture; format: cell-based, Staphylococcus aureus
Description: as §1, §2

[1] = test system: S. pneumoniae (ATCC 49619); assay: microbe, parasite or virus in culture; format: cell-based, Streptococcus pneumoniae
Description: Minimum inhibitory concentration (MIC) determinations were performed to characterize the effect of each compound on bacterial growth. Briefly, overnight cultures were subcultured at 1:100 and grown to and OD600 of 0.5. Cells were Diluted 1:10000 into fresh media with test compounds. Cells were incubated for 16 hours at 37° C. Growth was monitored at OD600. […] For S. aureus B. subtilis, S. pneumonaie, and E. faecalis the defined media Mem-alpha minus nucleotides (Invitrogen, Carlsbad Calif.) was used to control for variability in thymidine content of undefined media. The final dilution into media was at 1:2000 for S. pneumoniae, and E. faecalis. 3% laked horse blood was added to the media for S. pnemoniae.

MRSA (ATCC BAA-1720) = assay: microbe, parasite or virus in culture; format: cell-based, methicillin-resistant S. aureus
Description: as §1, §2

HeLa cells [2] = assay: Measurement of mitochondrial membrane potential (JC-1, flow cytometry); format: cell-based, human; conditions: Mtx-Fxr3 16 μM 72 hours, FCCP 10 μM 6 minutes
Description: HeLa cells were seeded in at 6,250 cells per well in 24 well plates. […] Carbonyl cyanide 4-(trifluoromethoxy)phenylhydrazone (FCCP) was added at 10 μM for 6 minutes prior to analysis to disrupt the mitochondrial membrane potential. The mitchondrial membrane potential sensitive dye JC-1 (Invitrogen, Carlsbad Calif.) was added at 5 μg/mL for 10 minutes at 37° C. Cells were washed with PBS and harvested as described above. Samples were subsequently analyzed by flow cytometry on a BD FACSCanto flow cytometer (BD Biosciences) with excitation at 488 nm and emmission wavelengths of 530 nm and 585 nm collected. Ratio of these two emmission wavelengths was used to measure changes in mitochondrial membrane potential.

[3] = Analysis of cell toxicity (HeLa), CCK-8 viability; format: cell-based; conditions: human, HeLa cells, 72-hour incubation, read-out: LD50 (50% lethal dose, concentration where 50% toxicity is observed)
Description: HeLa cells were cultured as described above. Cells were seeded in 96-well flat bottom tissue culture plates (Starsted, N.C.) at a density of 1500 cells per well. The culture media was removed and cells were washed with MEM-alpha (minus nucleotides). […] Cellular viability was analyzed after the indicated times using the CCK-8 viability dye (Dojindo, Rockville, Md.) at an absorbance of 450 nm.

HeLa cells [4] = assay: Measurement of cellular ATP levels; format: cell-based, human; conditions: Mtx-Fxr3 16 μM 16 hours, rotenone 100 nM 1 hour
Description: HeLa cells were seeded at a density of 50,000 cells per well one day prior to experiments. […] After treatment, cells were washed with PBS, harvested with trypsin/EDTA for 7 min at 37° C. Complete media was added to terminate the reaction and cells were collected by centrifugation (8 min at 700×g) and washed with PBS. Cells were lysed with 40 μl 1% TCA/4 mM EDTA for 20 minutes on ice, followed by 20 μl 1M Tris buffer pH 7.4. ATP levels were assessed using the ATP Bioluminescent Assay Kit (Sigma, Saint Louis Mich.) and a Spectramax M5 plate reader (Molecular Devices, Sunnyvale Calif.).

CN(Cc1cnc2nc(N)nc(N)c2n1)c1ccc(C(=O)N[C@@H](CCC(=O)O)C(=O)O)cc1 [Mtx, methotrexate, reference compound]
MIC (E. faecalis (ATCC 29212); Enterococcus faecalis, ATCC29212, E. faecalis (ATCC 29212), Mem-alpha minus nucleotides): 4 µM (≈ 1.82 µg/mL) | MIC (B. subtilis; Bacillus subtilis, B. subtilis, Mem-alpha minus nucleotides): > 16 µM | MIC (E. coli strain JW5503; Escherichia coli, JW5503, 16 h, read-out: MIC (minimum inhibitory concentration)): > 32 µM | MIC (S. aureus (ATCC 29213); Staphylococcus aureus, ATCC29213, S. aureus (ATCC 29213), Mem-alpha minus nucleotides): > 32 µM | MIC ([1]; Streptococcus pneumoniae, ATCC49619, S. pneumoniae (ATCC 49619), Mem-alpha minus nucleotides, 3% laked horse blood): 0.5 µM (≈ 0.227 µg/mL) | MIC (MRSA (ATCC BAA-1720); Staphylococcus aureus, MRSA (ATCC BAA-1720)): > 32 µM

N=C(N)NCCC[C@@H](NC(=O)[C@H](CC1CCCCC1)NC(=O)[C@@H](CCCNC(=N)N)NC(=O)[C@H](CC1CCCCC1)NC(=O)[C@@H](CCCNC(=N)N)NC(=O)[C@@H](N)CC1CCCCC1)C(N)=O [Fxr3, FxrFxrFxr] (H-[Cha][dR][Cha][dR][Cha][dR]-NH2; N-terminus assumed)
MIC (E. faecalis (ATCC 29212); ATCC 29212): > 16 µM | MIC (B. subtilis): > 16 µM | MIC (S. aureus (ATCC 29213); ATCC 29213): > 32 µM | MIC ([1]; ATCC 49619): > 16 µM | MIC (MRSA (ATCC BAA-1720); ATCC BAA-1720): > 32 µM

N#CC(C#N)=NNc1ccc(OC(F)(F)F)cc1 [FCCP, Carbonyl cyanide 4-(trifluoromethoxy)phenylhydrazone, reference compound]
effect on mitochondrial membrane potential (HeLa cells [2]): significant decrease in membrane potential

CN(Cc1cnc2nc(N)nc(N)c2n1)c1ccc(C(=O)N[C@@H](CCC(=O)N[C@@H](CC2CCCCC2)C(=O)N[C@H](CCCNC(=N)N)C(=O)N[C@@H](CC2CCCCC2)C(=O)N[C@H](CCCNC(=N)N)C(=O)N[C@@H](CC2CCCCC2)C(=O)N[C@H](CCCNC(=N)N)C(N)=O)C(=O)O)cc1 [Mtx-Fxr3, Mtx-FxrFxrFxr] ({DAMPA-γGlu}-[Cha][dR][Cha][dR][Cha][dR]-NH2)
MIC (minimum inhibitory concentration) (E. coli strain JW5503; strain JW5503, 16 h): 0.5 µM (≈ 0.691 µg/mL) | CC50 at 72 h [3]: > 16 µM | effect on cellular ATP levels (HeLa cells [4]): did not result in a decrease in cellular ATP levels; also recorded: did not affect | effect on mitochondrial membrane potential (HeLa cells [2]): not perturb the mitochondrial membrane potential; also recorded: did not affect
